What was measured:
Type in all cases: cell-based
S. mansoni adult worms = assay: In vitro tests on Schistosoma mansoni adult worms, viability score
Protocol: All assays were prepared in compliance with the laboratory SOP described herein above. Female NMRI mice (age 3 weeks, weight ca. 14 g) were purchased from Charles River (Sulzfeld) or Harlan Laboratories (Blackthorn, United Kingdom). The animals were allowed to adapt for 1 week under controlled conditions (22° C., 50% humidity, 12 hours light, and free access to water and rodent diet) before experimental handling. To obtain adult schistosomes, NMRI mice were infected subcutaneously with 80 to 100 cercariae. After 7 to 8 weeks, the mice were euthanized with CO2, and the worms were collected from the hepatic portal and mesenteric veins. Two pairs of adult worms were placed in each well of a 24-well plate with 2 ml culture medium and the test compound. […] Worms were kept in an incubator at 37° C. and 5% CO2 for up to 72 hours. After 72 hours, worm condition was microscopically evaluated using a scale from 3 (normal activity and no tegument alteration) to 0 (dead, completely granulated). Active compounds progressed into IC50 determination. […] For the in vitro drug sensitivity assays, all viability scores were averaged across replicates and normalized to the average viability scores of the control wells (Microsoft Office Excel 2010). […]

[1] = test system: Plasmodium falciparum W2 clone (Indochina, chloroquine-resistant); assay: In vitro antimalarial assay, chloroquine-resistant W2 clone; conditions: W2 clone
How it was run: (§1)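 Parasites grown in type A human RBCs; assay run on infected cell suspension at 2% parasitemia and 2% hematocrit, in duplicate at several concentrations. IC50 taken from dose curves, per the Makler method, with DMSO as vehicle; Vero cytotoxicity run in parallel to derive a selectivity index.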

[2] = test system: S. mansoni newly transformed schistosomula (NTS); assay: In vitro testing on Schistosoma mansoni newly transformed schistosomula (NTS), viability score; conditions: for IC50: NTS, 72 hours post-incubation
How it was run: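 Mechanically transformed S. mansoni (Liberian strain) NTS, cultured overnight, exposed at 100 per well to compound (from 10 mM DMSO stock; ≤1% DMSO controls) at 37 °C, 5% CO2 for 72 h. Viability scored microscopically from 3 (normal activity, intact tegument) to 0 (dead, granulated).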

[3] = test system: Plasmodium falciparum D6 clone (Sierra Leon, chloroquine-sensitive); assay: In vitro antimalarial assay, chloroquine-sensitive D6 clone; conditions: D6 clone
How it was run: as §1

[4] = molar IC50 ratio versus chloroquine

CN1CCCN2CCN(CCCN(Cc3ccccc3)CC2)CC1.[Cl-].[Cl-].[Fe+2] [NS12]
Effect at 72 h (%) (S. mansoni adult worms; adult S. mansoni at 10 μM, 72 h): 2.08% | P. falciparum W2 IC50 [1]: 0.1164 µg/mL | IC50 ([1]; converted with molecular weight, read-out: P. falciparum W2 IC50): 255 nM | X more potent than chloroquine [1, 4]: 2.67 | Effect at 72 h (%) ([2]; NTS S. mansoni at 10 μM): 100.00% | Effect at 72 h (%) ([2]; NTS S. mansoni, 33 μM): 100.00% | IC50 [2]: 6.69 µM | P. falciparum D6 IC50 [3]: 0.1371 µg/mL | IC50 ([3]; converted with molecular weight, read-out: P. falciparum D6 IC50): 300 nM | X more potent than chloroquine [3, 4]: 0.12

O=C(C1CCCCC1)N1CC(=O)N2CCc3ccccc3C2C1 (stereo not drawn) [Praziquantel, reference compound]
IC50 (S. mansoni adult worms; Schistosoma mansoni, adult worms, 72 hours post-exposure, read-out: IC50 [μM] Adults): 0.1 µM | IC50 ([2]; Schistosoma mansoni): 2.2 µM

Source: patent US12139481B2, “Compositions comprising macrocycle derivatives incorporating bridged macrocycles and methods of producing and using same” (Southwestern Oklahoma State University, priority 2015, dated 2024)
